# Literature values, collected in patent publication US20140249101A1, “METHODS FOR TREATING HEPATITIS C VIRUS INFECTION” (Gilead Pharmasset LLC, priority 2013, published 2014).
# Entries after “also recorded” stand apart in the source; their conditions may differ.
# Tested on: hepatitis C virus (HCV)
# Conditions: ribavirin alone
smiles,measurement,setting,value
"NC(=O)c1ncn([C@@H]2O[C@H](CO)[C@@H](O)[C@H]2O)n1 [ribavirin, 1-β-d-ribofuranosyl-1H-1,2,4-triazole-3-carboxamide]",sustained virologic response,,did not produce any sustained virologic response; also recorded: has not been shown to produce SVR
same,effect on HCV RNA levels,during or after therapy,did not reduce HCV RNA levels during or after therapy; also recorded: little or no effect on HCV RNA levels
same,effect on alanine aminotransferase (ALT) levels,"during the course of treatment, some patients with CHC",can normalize alanine aminotransferase (ALT) levels transiently; also recorded: normalized alanine aminotransferase (ALT) levels transiently
